The source of these data is patent US20230081986A1, “METHOD AND REAGENTS TO IMPROVE NONANIMAL OCULAR TOXICITY TESTS” (Lebrun Labs LLC, priority 2021, published 2023).

Read-outs that look alike come from different tables or passages of the source.

The test system of series [1] is food-source rabbit eyes (cornea). The procedure: (§1) Because of these modifications, we have updated our prediction model to include the metabolic test to identify reversible irritants or toxicity as shown in FIG. 3. For GHS (A) and EPA (B) classification systems, if the direct procedure (100 µL, washed after 1 minute exposure with 20 mL tear solution using a blunt end syringe 2-5 cm from cornea to create a laminar flow across the tissue) is negative, the metabolic result is used to confirm the negative result or identify reversible irritants or toxicity (GHS 2 or EPA II) if increased DoI is detected. […] For the GHS classification system, the NC is defined by no stromal DoI and a negative metabolic test.
Only food source eyes are suitable for this procedure.
3) Put the lid onto the 12 well plate(s) and place into the incubator (37° C., 5% CO2) for one hour.
3) Place an eye on the holder and carefully place a new cloning ring in the middle of the cornea without scratching it.
9) Start the timer for one minute.
10) After the one minute is over, remove the dosing ring and put in the proper container, and pick up the tissue without touching the cornea and hold it over the container for liquid waste.

Series [2] has the same test system. As to the method: All of the steps of the META test are the same as the direct test except for the dosing step. For the META, 100 µL of tear solution (saline with ascorbic acid, protein) is first added to the dosing ring, followed by the addition of 100 µL of the material to be tested.
as §1
NOTE: The steps of the main procedure are the same as described above. The only deviations are described below and apply to the dosing of the corneas and interpretation of results. • 1) After the pre-incubation, remove the 12 well plate(s) from the incubator and place in the hood. • 2) Using a skinny sharpie, label the wells on the lid (water or specific chemical). • 3) Place an eye on the holder and carefully place a new cloning ring in the middle of the cornea without scratching it. • 4) Remove the needle from the syringe by twisting it off. Fill the syringe with 40 mL of 1x PBS by aliquoting it from the beaker. • 5) Put the needle back on the syringe by twisting on and remove the cap protecting the needle. Place the syringe flat on a sterile piece of foil. • 6) Obtain the timer. Add 100 uL of the T8 tear solution in the center of the dosing ring. Ensure the entire surface is covered. • 7) Retrieve 100 uL of the sample and aspirate in the center of the dosing ring, ensuring the entire surface is exposed.
The source holds these as a separate data set.

The test system of series [3] is rabbit eye (cornea, iris, and conjunctiva). To be noted: Lebrun et al., cited from earlier work; for in vivo EPA: EPA classification, 2020 / NICEATM, 2006; for in vivo GHS: GHS classification, 2020.
The subject of series [4] is food-source rabbit eyes (cornea). Particulars: for Prediction EPA: EPA prediction model from direct and metabolic results; for Prediction GHS: GHS prediction model from direct and metabolic results.
Excerpt: FIG. 3 depicts the EPA and GHS prediction models. […] Meta. = Metabolic; GHS = Globally Harmonized System of Classification and Labeling of chemicals; EPA = Environmental Protection Agency; NC = Not Classified; * = Apical death of epithelium of at least 10%; must be a clear line of nuclei.
as §1

[5] abbreviates: 100 µL, 1 minute exposure, tear solution wash, 24 hours organ culture.
Where [6] appears, read: 6 minutes, 100 µL tear solution then 100 µL test material, run only where Direct was 0%.

`OCCCCC(O)CO` (stereo not shown) [1,2,6-Hexanetriol]: in series [1] (setting [5]), the “Direct (depth of injury, stromal)” value was 0.0%. In series [2] (setting [6]), the “Meta. (Metabolic)” value is “Neg”.

Turning to `BrCCCCCCBr` [1,6-Dibromohexane], the “Direct (depth of injury, stromal)” value in series [1] (setting [5]) was determined as 0.0%. Further, in series [2] (setting [6]), the “Meta. (Metabolic)” value was “Neg”.

Consider `CCC(C)(C)C(=O)O` [2,2-Dimethyl butanoic acid], for which, in series [3], the “in vivo EPA” value is reported as “I (I (corrosive, lesions are not reversed within 21 days))” and the “in vivo GHS” value is 1 (1 (extreme and/or irreversible irritation effects that are not reversed within 21 days)). The “Direct (depth of injury, stromal)” value in series [1] (rabbit, 1 min) was 27.4%.

Consider `CC(O)CC(C)O` (stereo not shown) [2,4-Pentanediol], for which the “Direct (depth of injury, stromal)” value in series [1] (rabbit, 1 min) is given as 0.0%. Also, in series [2], the “Meta. (Metabolic)” value is “Neg”.

With `CCOC(=O)C(C)(C)O` [2-Hydroxy isobutyric acid ethyl ester], in series [3], the “in vivo EPA” value is reported as “*I^2 (I (corrosive, lesions are not reversed within 21 days))” and the “in vivo GHS” value is 1 (1 (extreme and/or irreversible irritation effects that are not reversed within 21 days)). The “Direct (depth of injury, stromal)” value in series [1] (rabbit, 1 min) came out at 42.3%.

Take `CCCC(C)CO` (stereo not shown) [2-Methyl-1-pentanol]: in series [3], the “in vivo EPA” value was “III (III (damage is reversed within 7 days of exposure))” and the “in vivo GHS” value is recorded as 2B (2 B, within 7 days). In addition, the “Direct (depth of injury, stromal)” value in series [1] (rabbit, 1 min) stood at 5.7%. Besides, in series [4], the “Prediction EPA” value is “III (category III includes damage to the epithelium of the stroma up to 15%)”.

Turning to `N#CCCCl` [3-Chloropropionitrile], in series [3], the “in vivo EPA” value is given as “III (III (damage is reversed within 7 days of exposure))” and the “in vivo GHS” value is 2B (2 B, within 7 days). In series [1] (setting [5]), the “Direct (depth of injury, stromal)” value came out at 12.0%. Besides, in series [4], the “Prediction EPA” value is “III (category III includes damage to the epithelium of the stroma up to 15%)” and the “Prediction GHS” value was 2 (Category 2 is identified by any stromal DoI up to 18% or a positive metabolic test).

Consider `COCC(O)CO` (stereo not shown) [3-Methoxy-1,2-propanediol], for which the “Direct (depth of injury, stromal)” value in series [1] (setting [5]) came to 0.0%. The “Meta. (Metabolic)” value in series [2] (setting [6]) is given as “Neg”.

Regarding `CC(=O)O` [Acetic Acid (10%), Acetic Acid], in series [3], the “in vivo EPA” value is “I (I (corrosive, lesions are not reversed within 21 days))” and the “in vivo GHS” value was 1 (1 (extreme and/or irreversible irritation effects that are not reversed within 21 days)).

On to `O=S(=O)(Cl)c1ccccc1` [Benzenesulphonylchloride], for which, in series [3], the “in vivo EPA” value is given as “*I^2 (I (corrosive, lesions are not reversed within 21 days))” and the “in vivo GHS” value is reported as 1 (1 (extreme and/or irreversible irritation effects that are not reversed within 21 days)). In addition, the “Direct (depth of injury, stromal)” value in series [1] (setting [5]) amounted to 52.8%. In series [4], the “Prediction EPA” value is “I (category I includes damage greater than 25%)” and the “Prediction GHS” value is on record as 1 (GHS category 1 is defined as stromal damage of 18% or greater).

As to `OC1CCCCC1` [Cyclohexanol], in series [3], the “in vivo EPA” value was “I (I (corrosive, lesions are not reversed within 21 days))” and the “in vivo GHS” value is given as 1 (1 (extreme and/or irreversible irritation effects that are not reversed within 21 days)). Further, in series [1] (setting [5]), the “Direct (depth of injury, stromal)” value is 29.6%. Moreover, in series [4], the “Prediction EPA” value is “I (category I includes damage greater than 25%)” and the “Prediction GHS” value is 1 (GHS category 1 is defined as stromal damage of 18% or greater).

Consider `OC1CCCC1` [Cyclopentanol], for which, in series [3], the “in vivo EPA” value is listed as “II (II (damage is reversed within 21 days of exposure))” and the “in vivo GHS” value is given as 2B (2 B, within 7 days). The “Direct (depth of injury, stromal)” value in series [1] (setting [5]) was determined as 30.4%. For the same compound, in series [4], the “Prediction EPA” value is recorded as “I (category I includes damage greater than 25%)” and the “Prediction GHS” value was 1 (GHS category 1 is defined as stromal damage of 18% or greater).

`CC(C)CC(=O)CC(C)C` [Di-iso-butyl ketone]: in series [1] (rabbit, 1 min), the “Direct (depth of injury, stromal)” value is 0.0%.

On to `CCCCCCCCOCCCCCCCC` [Dioctyl ether], for which the “Direct (depth of injury, stromal)” value in series [1] (rabbit, 1 min) came to 0.0%. The “Meta. (Metabolic)” value in series [2] is given as “Neg”.

For the compound `OCC(O)CO` [Glycerol], in series [1] (rabbit, 1 min), the “Direct (depth of injury, stromal)” value stood at 0.0%.

Regarding `C[Si](C)(C)O[Si](C)(C)C` [Hexamethyldisiloxane], in series [1] (setting [5]), the “Direct (depth of injury, stromal)” value is 0.0%. Moreover, in series [2] (setting [6]), the “Meta. (Metabolic)” value is on record as “Neg”.

On to `CCCCCC` [Hexane], for which the “Direct (depth of injury, stromal)” value in series [1] (setting [5]) turned out to be 0.0%. Further, in series [2] (setting [6]), the “Meta. (Metabolic)” value is reported as “Neg”.

For the compound `C=CC(=O)OCCO` [Hydroxyethyl acrylate], the “Direct (depth of injury, stromal)” value in series [1] (setting [5]) is given as 100.0%. Moreover, the “Prediction GHS” value in series [4] is 1 (GHS category 1 is defined as stromal damage of 18% or greater).

With `CC(=O)CC(=O)OC(C)C` [Isopropyl acetoacetate], in series [3], the “in vivo EPA” value was “III (III (damage is reversed within 7 days of exposure))” and the “in vivo GHS” value is given as 2B (2 B, within 7 days). Besides, in series [1] (rabbit, 1 min), the “Direct (depth of injury, stromal)” value is listed as 0.0%. In addition, the “Meta. (Metabolic)” value in series [2] is recorded as “Pos”.

As to `CC(O)C(=O)O` (stereo not shown) [Lactic acid], in series [3], the “in vivo EPA” value is on record as “I (I (corrosive, lesions are not reversed within 21 days))” and the “in vivo GHS” value is reported as 1 (1 (extreme and/or irreversible irritation effects that are not reversed within 21 days)). The “Direct (depth of injury, stromal)” value in series [1] (rabbit, 1 min) is reported as 100.0%. The “Prediction EPA” value in series [4] was “I (category I includes damage greater than 25%)”.

As to `COC(C)=O` [Methyl acetate], in series [3], the “in vivo EPA” value is “II (II (damage is reversed within 21 days of exposure))” and the “in vivo GHS” value is reported as 2A (2 A, irritation effects are reversed within 21 days). In addition, in series [1] (rabbit, 1 min), the “Direct (depth of injury, stromal)” value is on record as 24.0%.

With `CCCCCC(C)=O` [Methyl amyl ketone], the “in vivo EPA” value in series [3] was “III (III (damage is reversed within 7 days of exposure))”. Moreover, the “Direct (depth of injury, stromal)” value in series [1] (setting [5]) was 6.0%. For the same compound, in series [4], the “Prediction EPA” value is “III (category III includes damage to the epithelium of the stroma up to 15%)” and the “Prediction GHS” value is reported as 2 (Category 2 is identified by any stromal DoI up to 18% or a positive metabolic test).

For `CCCOCC(C)O` (stereo not shown) [Propasol solvent P], in series [3], the “in vivo EPA” value is given as “II (II (damage is reversed within 21 days of exposure))” and the “in vivo GHS” value is reported as 2A (2 A, irritation effects are reversed within 21 days). In addition, the “Direct (depth of injury, stromal)” value in series [1] (setting [5]) is 18.3%. In addition, in series [4], the “Prediction EPA” value is “II (category II includes damage greater than 15% but less than 25% (or is positive for cell death by the metabolic test))” and the “Prediction GHS” value is reported as 1 (GHS category 1 is defined as stromal damage of 18% or greater).

As to `CC(O)CO` (stereo not shown) [Propylene glycol], the “Direct (depth of injury, stromal)” value in series [1] (rabbit, 1 min) was determined as 0.0%. In addition, the “Meta. (Metabolic)” value in series [2] is on record as “Neg”.

`Cc1ccccc1` [Toluene]: the “Direct (depth of injury, stromal)” value in series [1] (setting [5]) stood at 50.1%. In addition, the “Prediction GHS” value in series [4] was 1 (GHS category 1 is defined as stromal damage of 18% or greater).

As for `C=CC(=O)OCCCCCC(C)C` [iso-Octyl acrylate], in series [1] (setting [5]), the “Direct (depth of injury, stromal)” value came out at 0.0%.

For `CC(C)CCCCCOC(=O)CS` [iso-Octylthioglycolate], the “Direct (depth of injury, stromal)” value in series [1] (setting [5]) is recorded as 0.0%. The “Meta. (Metabolic)” value in series [2] (setting [6]) was “Neg”.

Turning to `CCCCCCCCBr` [n-Octyl bromide], the “Direct (depth of injury, stromal)” value in series [1] (setting [5]) amounted to 0.0%.

As to `CCC(C)c1ccccc1` (stereo not shown) [sec-Butylbenzene], the “Direct (depth of injury, stromal)” value in series [1] (setting [5]) is reported as 0.0%. Further, in series [2] (setting [6]), the “Meta. (Metabolic)” value is reported as “Neg”.

As to Diethylaminopropionitrile, in series [3], the “in vivo EPA” value is “II (II (damage is reversed within 21 days of exposure))” and the “in vivo GHS” value is reported as 1 (1 (extreme and/or irreversible irritation effects that are not reversed within 21 days)). The “Direct (depth of injury, stromal)” value in series [1] (setting [5]) is reported as 56.8%. In series [4], the “Prediction EPA” value is listed as “II (category II includes damage greater than 15% but less than 25% (or is positive for cell death by the metabolic test))” and the “Prediction GHS” value is 1 (GHS category 1 is defined as stromal damage of 18% or greater).
